Laboratory results as given in ChEMBL document CHEMBL3507680, “University of Dundee, Gates Library screen for HepG2 cell viability”.

Assay: Human HepG2 cell viability assay in 384 well format
Assay type: toxicity, cell-based
Set-up: dose 125 nL, time 70.5 hour; cytotoxicity at 70.5 h: concentration not given beside the values
Details: HepG2 cells, read-out: Inhibition

| SMILES | cytotoxicity at 70.5 h [%] |
| --- | --- |
| O=c1ccc(-n2cccn2)nn1CCNS(=O)(=O)c1ccc(F)c(Cl)c1 | 2.64 |
| O=c1ccc(-n2ccnc2)nn1CCNS(=O)(=O)c1ccc(Cl)s1 | 3.04 |
| O=c1ccc(-n2ccnc2)nn1CCNS(=O)(=O)c1ccccc1Cl | -1.86 |
| COc1ccc(-n2nnc(C(=O)NCC3CCCCC3)n2)cc1 | -12.2 |
| NC(=O)c1nnn(-c2ccc(Cl)cc2)n1 | -5.31 |
| O=C(c1nnn(-c2ccc(C(F)(F)F)cc2)n1)N1CC(O)C1 | -8.07 |
| CN(C)C(=O)c1nnn(-c2ccc(Br)cc2)n1 | 28.4 |
| Cc1nccn1-c1ccc(C(=O)NCC(F)(F)F)nn1 | -1.99 |
| COc1ccccc1C(O)Cn1cc(C(=O)NCc2ccco2)nn1 (stereo not given) | 0.751 |
| CC(C)NC(=O)NCCn1nc(C(F)(F)F)n(C)c1=O | -4.05 |
| Cc1ccccc1NC(=O)NCCn1nc(C(F)(F)F)n(C)c1=O | -2.02 |
| O=C(CN1CCC(c2nnc(C(F)(F)F)o2)CC1)Nc1cccnc1 | -3.9 |
| O=C(CN1CCC(c2nnc(C(F)(F)F)o2)CC1)NCc1ccccc1 | -0.907 |
| O=C(c1nnn(-c2ccccc2F)c1-c1ccccn1)N1CCSCC1 | -0.794 |
| COC(=O)N1CCc2ccccc2C1C(=O)NCC(F)(F)F (stereo not given) | -5.95 |
| O=C(NC1CCN(c2ccc(-c3ccccc3F)nn2)C1)c1ccc[nH]1 (stereo not given) | 10.6 |
| O=C(NC1CCN(c2ccc(-c3ccccc3F)nn2)C1)C1CCC1 (stereo not given) | 1.72 |
| Cc1noc(-c2ccc(N3CCCC(C(N)=O)C3)nc2)n1 (stereo not given) | -0.883 |
| CN1CCN(c2cc(NC(=O)Cn3ccc4ccccc43)ncn2)CC1 | 1.47 |
| O=C(Nc1cc(N2CCOCC2)ncn1)c1cnccn1 | -3.66 |
| CCOc1ccc(NC(=O)Nc2cc(N3CCCCC3)ncn2)cc1 | -1.28 |
| O=C(Cc1c(F)cccc1Cl)Nc1cc(N2CCCC2)ncn1 | -2.78 |
| COc1ncccc1C(=O)NCCn1cnc(C)cc1=O | -2.32 |

| SMILES | cytotoxicity at 70.5 h [%] |
| --- | --- |
| COc1ccc(S(=O)(=O)NCCn2cnc(C)cc2=O)cc1C | -9.08 |
| O=C(NCCn1cnc(C2CCCC2)cc1=O)c1ccc(=O)[nH]n1 | -0.636 |
| CC(C)NC(=O)NCCn1cnc(C2CCCC2)cc1=O | -6.52 |
| Cc1ccc(NC(=O)NCCn2cnc(C)c(C)c2=O)cc1F | -1.25 |
| Cc1ncn(CCNC(=O)Nc2ccc(OC(F)(F)F)cc2)c(=O)c1C | -3.32 |
| Cn1nc(N2CCCC(C(=O)Nc3nc4ccccc4[nH]3)C2)ccc1=O (stereo not given) | -10 |
| COc1cc(NC(=O)C2CC(=O)N(c3cccc(F)c3)C2)ncn1 (stereo not given) | -3.43 |
| COc1cccc2sc(N3CC(OC(C)=O)C3)nc12 | -11.2 |
| COC(=O)c1ccc(S(=O)(=O)NCC(O)c2sccc2C)cc1 (stereo not given) | -2.62 |
| COCC(C)(O)CNC(=O)c1cc(-c2ccc(F)cc2)nn1C (stereo not given) | 1.82 |
| COC(=O)c1ccc(S(=O)(=O)NCC(C)(O)c2cccs2)cc1 (stereo not given) | -9.34 |
| O=C1CCSCC(C(=O)N2CCC(O)CC2)N1 (stereo not given) | -10.8 |
| O=C1CCSCC(C(=O)N2CCC3(CC2)OCCO3)N1 (stereo not given) | -14.2 |
| Cc1csc(NC(=O)C2CSCCC(=O)N2)n1 (stereo not given) | -0.709 |
| CNC(=O)Cc1csc(NC(=O)C2CSCCC(=O)N2)n1 (stereo not given) | 14.7 |
| Cn1nnc2c(N3CC(C(=O)NCc4ccccc4F)C3)ncnc21 | -8.25 |
| CCCc1nnsc1C(=O)NCC(O)c1ccoc1 (stereo not given) | -11.2 |
| O=C(NCC(O)c1ccoc1)Nc1cccs1 (stereo not given) | -6.41 |
| O=C(NCC(O)c1ccoc1)Nc1c(F)cccc1F (stereo not given) | -9.03 |
| CCOc1ccccc1C(=O)NCCc1ccoc1 | -13.5 |
| COC(=O)c1sccc1S(=O)(=O)NCCc1ccoc1 | -5.25 |
| O=C(c1ccc2[nH]cnc2c1)N1CCC(Oc2ccccn2)CC1 | 1.58 |
| CN1CCCC(C(=O)N2CCC(Oc3ccccn3)CC2)C1 (stereo not given) | -7.47 |

| SMILES | cytotoxicity at 70.5 h [%] |
| --- | --- |
| Cc1noc(C)c1S(=O)(=O)N1CCC(Oc2ccccn2)CC1 | 10 |
| CCOC(=O)N1CCC(Oc2ccc(C(F)(F)F)cn2)CC1 | -7.88 |
| O=C(Cn1cccn1)N1CCC(Oc2ccc(C(F)(F)F)cn2)CC1 | -0.904 |
| CN(CC(=O)N1CCC(Oc2ccc(C(F)(F)F)cn2)CC1)S(C)(=O)=O | 0.51 |
| O=C(CCn1ccc(=O)[nH]c1=O)N1CCC(Oc2ncccc2Cl)CC1 | -6.14 |
| O=C(NCc1ccccc1)N1CCC(Oc2ncccc2Cl)CC1 | 11 |
| O=S(=O)(c1cc(F)cc(F)c1)N1CCC(Oc2ccc(Cl)cn2)CC1 | 2 |
| N#Cc1cccnc1OC1CCN(C(=O)NCc2ccccc2)CC1 | -4.78 |
| N#Cc1cccnc1OC1CCN(S(=O)(=O)c2c(F)cccc2F)CC1 | 39.9 |
| N#Cc1ccc(OC2CCN(C(=O)c3ccccc3Cl)CC2)nc1 | -5.83 |
| CN1CCCC(C(=O)N2CCC(Oc3ncccn3)CC2)C1 (stereo not given) | -4.47 |
| Cc1noc(C)c1S(=O)(=O)N1CCC(Oc2cccnn2)CC1 | -0.269 |
| O=C(c1cc(C2CC2)on1)N1CCC(Oc2ncccc2Br)CC1 | -13.4 |
| CC(=O)Nc1cnc(Oc2ccccc2F)nc1 | -5.65 |
| O=C(c1ccccn1)N1CCN(c2ccc(-n3cccc3)nn2)CC1 | -4.16 |
| COCC(=O)N1CCN(c2cc(-n3cccc3)nc(C)n2)CC1 | 5.98 |
| Cc1nc(N2CCN(C(=O)c3cccs3)CC2)cc(-n2cccc2)n1 | 1.27 |
| Cc1nc(N2CCN(C(=O)c3cccnc3)CC2)cc(-n2cccc2)n1 | 4.9 |
| Cc1cncc(C(=O)N2CCCC3(CCCN3S(C)(=O)=O)C2)c1 (stereo not given) | -8.81 |
| O=C(c1ccco1)N1CCC2(CC1)C(=O)Nc1ccccc12 | -9.22 |
| O=C1CC2(CCN(Cc3cccs3)C2)CN1c1cccc(F)c1 (stereo not given) | -11 |
| CS(=O)(=O)N1CCCC12CCCN(C(=O)c1ccc3[nH]ccc3c1)C2 (stereo not given) | -10.6 |
| CN(C)CC(=O)N1CCC2(CC1)COCCN(c1ncccn1)C2 | 22.5 |

| SMILES | cytotoxicity at 70.5 h [%] |
| --- | --- |
| Cc1ccc2c(n1)N(CCn1cccn1)CCN(C(=O)NC(C)C)C2 | 21.7 |
| Cc1cnc(C(=O)N2CCc3ncnc(-c4cnn(C)c4)c3CC2)cn1 | 0.39 |
| Cn1cc(-c2ncnc3c2CCN(C(=O)c2cnccn2)CC3)cn1 | 1.04 |
| Cc1cc(C(=O)NCc2ccnc(N3CCN(C)CC3)c2)no1 | -0.337 |
| CN1CCN(c2cc(CNC(=O)c3cccnc3O)ccn2)CC1 | -1.85 |
| Cc1nc2cc(=O)[nH]n2c(C)c1CC(=O)NCCCc1ccccc1 | -4.06 |
| NC(=O)Cn1cc(NC(=O)N2CCCC(O)C2)cn1 (stereo not given) | -4.87 |
| CCCc1noc(C(C)N2CCN(Cc3nc(C)c(C)o3)CC2)n1 (stereo not given) | 0.969 |
| Cc1cc(CNC(=O)Cc2c(C)nc3cc(=O)[nH]n3c2C)no1 | -4.77 |
| Cc1cnn(CC2CN(CC(=O)Nc3cc(C)on3)CCO2)c1 (stereo not given) | -5.06 |
| CCc1ccc(C(=O)N2CCCN(Cc3nccn3CC)CC2)s1 | 14 |
| CCC(O)CN1CCN(C(=O)Cc2ccccc2Cl)CC1 (stereo not given) | -0.929 |
| CCn1ccnc1CN1CCCN(C(=O)c2cc[nH]n2)CC1 | 0.0306 |
| CC(O)CN1CCN(C(=O)Cc2ccccc2Cl)CC1 (stereo not given) | -5.1 |
| CC(C)Cn1cc(NC(=O)N2CCCC2)cn1 | 0.273 |
| CCc1n[nH]c(C2CN(C(=O)CCc3cscn3)CCO2)n1 (stereo not given) | 1.24 |
| CCc1ocnc1C(=O)N1CCCC(n2nc(C)nc2C)C1 (stereo not given) | 5.06 |
| CC(C)c1n[nH]c(C2CN(C(=O)CCc3cscn3)CCO2)n1 (stereo not given) | 13.2 |
| Cc1cc(C(=O)NCc2ccc(N3CCN(C)CC3)nc2)c(C)s1 | -12.2 |
| CCn1ccnc1CN1CCCN(C(=O)c2cc(C)nn2CC)CC1 | 3.88 |
| CCc1noc(C)c1C(=O)N1CCCC(n2nc(C)nc2C)C1 (stereo not given) | -2.69 |
| Cc1cc(C)n(CC2CCCCN2CCc2ccncc2)n1 (stereo not given) | 4.66 |
| Cc1ccc(NC2CCN(C(=O)c3cncnc3C)CC2)nn1 | 14.7 |

| SMILES | cytotoxicity at 70.5 h [%] |
| --- | --- |
| COc1cccc(CNCc2c(C(C)C)nn(C)c2N(C)C)c1 | 1.8 |
| COc1cc(CNCCc2cnn(C)c2)cc2c1OCO2 | -8.59 |
| Cc1cc(C)c(CNC(=O)NCCC2CCCO2)c(=O)[nH]1 (stereo not given) | -2.77 |
| O=C(NCc1cccnc1)Nc1cc(C(F)(F)F)c[nH]c1=O | -9.57 |
| COc1ccc(OC)c(CNCc2c(C(C)C)nn(C)c2N(C)C)c1 | -3.06 |
| Cc1cc(CN2CCOC(Cn3nc(C)cc3C)C2)on1 (stereo not given) | -5.48 |
| O=C(c1cccnc1N1CCOCC1)N1CCCC(n2cccn2)C1 (stereo not given) | -5.6 |
| Cc1nnc2n1CCN(C(=O)c1cc(Br)c[nH]1)C2 | -5.46 |
| Cc1csc(NC(=O)CN2CCCC(Cn3nc(C)nc3C)C2)n1 (stereo not given) | -7.51 |
| Cc1cc(C)c(CNC(=O)CC2CCCO2)c(=O)[nH]1 (stereo not given) | -3.05 |
| Cc1ccc(NC2CCN(C(=O)c3ccoc3C)CC2)nn1 | -0.801 |
| Cc1noc(C)c1C(=O)N1CCC(Nc2cccnn2)CC1 | 0.523 |
| CC(C)(C)c1cccc(OCC(=O)NS(=O)(=O)c2cccnc2)c1 | 21.7 |
| COc1ccc(OCCNCc2c(C)nn(C)c2N(C)C)cc1 | 31.1 |
| O=C(c1ccccn1)N1CCC2(CC1)C(=O)Nc1ccccc12 | -9.49 |
| O=C(CC1CC1)N1CC[C@H]2OCC[C@@]2(COc2ncccc2F)C1 | -21.5 |
| O=C1CCCN1Cc1ncn2c1CN(C(=O)N1CCCC1)CCC2 | 0.134 |
| CCS(=O)(=O)N1Cc2ncn(CC3CC3)c2C(COCC2CC2)C1 (stereo not given) | 1.64 |
| CCS(=O)(=O)N1CCN(CCn2cccn2)c2nc(C)ccc2C1 | -2.39 |
| CN(C)C(=O)N1CCC2(CCCN(c3ncccn3)C2)C1 (stereo not given) | 5.18 |
| O=C(NCC1CCOCC1)[C@@H]1CC[C@@H]2[C@@H](CCN2Cc2ccncc2)O1 | -0.695 |
| Cn1ccnc1C(=O)NCc1cnc2n1CCN(CC1CC1)CC2 | -0.996 |
| CN(C)CCOCC1CN(Cc2ccncc2)Cc2nnn(C)c21 (stereo not given) | 1.9 |
